Measured values taken from patent US12090176B2 (priority 2019, dated 2024).
Read-outs that look alike come from different tables or passages of the source.

Tested on: hematopoietic system damage model in which the mouse has been exposed to cyclophosphamide
Type: in vivo, KM mice
Design: unit not given here

For `C#C[C@]1(O)[C@H](O)C[C@H]2[C@@H]3CCc4cc(OC5CCCC5)ccc4[C@H]3CC[C@@]21C` [Nilestriol], the “peripheral blood WBC” value (nilestriol 10 mg/kg group, normal (before modeling)) was 13.8 ± 2.5 ×10^12, the “peripheral blood WBC” value (nilestriol 10 mg/kg once 6 h after cyclophosphamide, 1 d after modeling) was 3.6 ± 0.9 ×10^12 and the “peripheral blood WBC” value (nilestriol 10 mg/kg once 6 h after cyclophosphamide, 4 d after modeling) was 3.5 ± 2.5 ×10^12. The “peripheral blood WBC” value (nilestriol 10 mg/kg once 6 h after cyclophosphamide, 6 d after modeling) was 8.0 ± 2.5 ×10^12 and the “peripheral blood WBC” value (nilestriol 10 mg/kg once 6 h after cyclophosphamide, 12 d after modeling) was 12.0 ± 5.9 ×10^12.
